From patent US20240417411A1, “COMPOUNDS AND METHODS FOR TREATMENT OF VIRAL INFECTIONS” (priority 2023, published 2024)
Like-named read-outs stand apart in the source and are kept apart here.

How the values were obtained:
[1] = in vitro; format: in vitro ADME; details: human, s9, pH 7.4
In short: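 Test compounds at 2 μM final were incubated in a GI S9 reaction mixture, reactions being started by substrate addition. Diluted supernatants were quantified by LC/MS on a Q-Exactive using analyte/internal standard peak area ratios, with 0.1% formic acid water/acetonitrile gradient elution and 5 ppm mass tolerance.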

[2] = in vitro; format: cell-based; details: human
In short: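 Uninfected MT4 cells cultured with compound 4–5 days at 37 °C, equilibrated to 25 °C, and viability read by CellTiter-Glo luminescence. Untreated and 2 μM puromycin-treated cells defined 100% and 0% viability; CC50, the concentration reducing viability by 50%, from non-linear regression.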

[3] = tested on: RSV-Luc5; assay: microbe, parasite or virus in culture; format: cell-based; details: human respiratory syncytial virus, NHBE, 72 h, read-out: RSV NHBE EC50 (nM)
[4] = tested on: Caco-2 cells (clone C2BBe1); details: human, Caco-2
[5] = tested on: SARS-CoV2-NLuc; assay: microbe, parasite or virus in culture; format: cell-based, SARS Coronavirus 2; details: Severe acute respiratory syndrome coronavirus 2, 48 h, read-out: SARS-CoV2 EC50 (nM)

Compound | Human Plasma T1/2 (2 μM) | half-life at 2 μM [1] | CC50 [2] | EC50 [3] | Caco2 A to B [4] | Caco2 B to A [4] | EC50 [5] | Human Plasma T1/2
CC(C)OC(=O)OC[C@H]1O[C@@](C#N)(c2ccc3c(N)ncnn23)[C@@H]2OC(=O)CCCCCC(=O)O[C@@H]21 [Compound C6, ((9aR,10R,12R,12aR)-12-(4-aminopyrrolo[2,1-f][1,2,4]triazin-7-yl)-12-cyano-2,8-dioxodecahydro-2H-furo[3,4-b][1,4]dioxacycloundecin-10-yl)methyl isopropyl carbonate] | 3 min | 0.637 min | > 50 µM | 1460 nM | 11.12 | 11.68 | > 50000 nM | 
CC(C)OC(=O)OC[C@H]1O[C@@](C#N)(c2ccc3c(N)ncnn23)[C@@H]2OC(=O)CCCCC(=O)O[C@@H]21 [Compound C7, ((8aR,9R,11R,11aR)-11-(4-aminopyrrolo[2,1-f][1,2,4]triazin-7-yl)-11-cyano-2,7-dioxodecahydrofuro[3,4-b][1,4]dioxecin-9-yl)methyl isopropyl carbonate] | 3 min | 0.596 min | > 50 µM | 2730 nM | 4.31 | 9.89 | > 50000 nM | 
CC(C)OC(=O)OC[C@H]1O[C@@](C#N)(c2ccc3c(N)ncnn23)[C@@H]2OC(=O)CCOCCC(=O)O[C@@H]21 [Compound C8, ((9aR,10R,12R,12aR)-12-(4-aminopyrrolo[2,1-f][1,2,4]triazin-7-yl)-12-cyano-2,8-dioxooctahydro-2H,6H-furo[3,4-b][1,4,8]trioxacycloundecin-10-yl)methyl isopropyl carbonate] | 3 min | 0.687 min | > 50 µM | 3350 nM | 1.56 | 10.63 | > 50000 nM | 
CC(C)OC(=O)OC[C@H]1O[C@@](C#N)(c2ccc3c(N)ncnn23)[C@@H]2OC(=O)CCC=CCCC(=O)O[C@@H]21 [Compound C9, ((10aR,11R,13R,13aR)-13-(4-aminopyrrolo[2,1-f][1,2,4]triazin-7-yl)-13-cyano-2,9-dioxo-2,3,4,7,8,9,10a,11,13,13a-decahydrofuro[3,4-b][1,4]dioxacyclododecin-11-yl)methyl isopropyl carbonate] | 3 min | 0.655 min | > 50 µM | 3050 nM | 18.29 | 17.94 | 27500 nM | 
CCOC(=O)OC[C@H]1O[C@@](C#N)(c2ccc3c(N)ncnn23)[C@@H]2OC(=O)CCCC(=O)O[C@@H]21 [Compound C12, ((7aR,8R,10R,10aR)-10-(4-aminopyrrolo[2,1-f][1,2,4]triazin-7-yl)-10-cyano-2,6-dioxooctahydro-2H-furo[3,4-b][1,4]dioxonin-8-yl)methyl ethyl carbonate] |  | 0.621 min | > 50 µM | 7940 nM | 1.94 | 5.31 | 5880 nM | 3 min
COC(=O)OC[C@H]1O[C@@](C#N)(c2ccc3c(N)ncnn23)[C@@H]2OC(=O)CCCC(=O)O[C@@H]21 [Compound C13, ((7aR,8R,10R,10aR)-10-(4-aminopyrrolo[2,1-f][1,2,4]triazin-7-yl)-10-cyano-2,6-dioxooctahydro-2H-furo[3,4-b][1,4]dioxonin-8-yl)methyl methyl carbonate] | 3 min | 0.613 min | > 50 µM | 30000 nM | 2.1 | 5.18 | 4100 nM | 
N#C[C@@]1(c2ccc3c(N)ncnn23)O[C@H](COC(=O)OC2CCCC2)[C@H]2OC(=O)CCCC(=O)O[C@H]21 [Compound C20, ((7aR,8R,10R,10aR)-10-(4-aminopyrrolo[2,1-f][1,2,4]triazin-7-yl)-10-cyano-2,6-dioxooctahydro-2H-furo[3,4-b][1,4]dioxonin-8-yl)methyl cyclopentyl carbonate] | 3 min |  | > 50 µM | 27900 nM |  |  | 11700 nM | 
CCC(CC)COC(=O)OC[C@H]1O[C@@](C#N)(c2ccc3c(N)ncnn23)[C@@H]2OC(=O)CCCC(=O)O[C@@H]21 [Compound C21, ((7aR,8R,10R,10aR)-10-(4-aminopyrrolo[2,1-f][1,2,4]triazin-7-yl)-10-cyano-2,6-dioxooctahydro-2H-furo[3,4-b][1,4]dioxonin-8-yl)methyl (2-ethylbutyl) carbonate] | 3 min | 0.637 min | > 50 µM | 6600 nM |  |  | 1440 nM | 
COC(C)(C)COC(=O)OC[C@H]1O[C@@](C#N)(c2ccc3c(N)ncnn23)[C@@H]2OC(=O)CCCC(=O)O[C@@H]21 [Compound C22, ((7aR,8R,10R,10aR)-10-(4-aminopyrrolo[2,1-f][1,2,4]triazin-7-yl)-10-cyano-2,6-dioxooctahydro-2H-furo[3,4-b][1,4]dioxonin-8-yl)methyl (2-methoxy-2-methylpropyl) carbonate] | 3 min | 0.568 min | > 50 µM | 4850 nM | 0.88 | 3.46 | 5110 nM | 
N#CC1(COC(=O)OC[C@H]2O[C@@](C#N)(c3ccc4c(N)ncnn34)[C@@H]3OC(=O)CCCC(=O)O[C@@H]32)CC1 [Compound C24, ((7aR,8R,10R,10aR)-10-(4-aminopyrrolo[2,1-f][1,2,4]triazin-7-yl)-10-cyano-2,6-dioxooctahydro-2H-furo[3,4-b][1,4]dioxonin-8-yl)methyl ((1-cyanocyclopropyl)methyl) carbonate] | 3 min | 0.565 min | > 50 µM | 7760 nM |  |  | 11500 nM | 
N#C[C@@]1(c2ccc3c(N)ncnn23)O[C@H](COC(=O)OC(CF)CF)[C@H]2OC(=O)CCCC(=O)O[C@H]21 [Compound C27, ((7aR,8R,10R,10aR)-10-(4-aminopyrrolo[2,1-f][1,2,4]triazin-7-yl)-10-cyano-2,6-dioxooctahydro-2H-furo[3,4-b][1,4]dioxonin-8-yl)methyl (1,3-difluoropropan-2-yl) carbonate] | 3 min | 0.617 min | > 50 µM | 9810 nM |  |  | 7400 nM | 
CC(=O)OC[C@H]1O[C@@](C#N)(c2ccc3c(N)ncnn23)[C@@H]2OC(=O)CCCC(=O)O[C@@H]21 [Compound C55, ((7aR,8R,10R,10aR)-10-(4-aminopyrrolo[2,1-f][1,2,4]triazin-7-yl)-10-cyano-2,6-dioxooctahydro-2H-furo[3,4-b][1,4]dioxonin-8-yl)methyl acetate] | 3 min |  | > 50 µM | 2070 nM |  |  | 3300 nM | 
CCC(=O)OC[C@H]1O[C@@](C#N)(c2ccc3c(N)ncnn23)[C@@H]2OC(=O)CCCC(=O)O[C@@H]21 [Compound C56, ((7aR,8R,10R,10aR)-10-(4-aminopyrrolo[2,1-f][1,2,4]triazin-7-yl)-10-cyano-2,6-dioxooctahydro-2H-furo[3,4-b][1,4]dioxonin-8-yl)methyl propionate] | 3 min |  | > 50 µM | 2300 nM |  |  | 4580 nM | 
